Experimental data from ChEMBL document CHEMBL2346566, “Small molecule inhibitors of PCNA/PIP-box interaction suppress translesion DNA synthesis” (Bioorg Med Chem, 2013).
Activity calls are given as the source filed them. The rule behind the calls is not given here.

Tests used:
Type in all cases: functional, cell-based
HeLa = assay: Antiproliferative activity against human HeLa cells assessed as inhibition of at 10 uM after 18 hrs by assay
U2OS [1] = assay: Potentiation of cisplatin-induced cytotoxicity in human U2OS cells at 15 uM after 4 days by Alamar blue assay
U2OS [2] = assay: Cytotoxicity against human U2OS cells at 15 uM after 4 days by Alamar blue assay

CS(=O)(=O)NC(=O)Cc1cc(I)c(Oc2ccc(O)c(I)c2)c(I)c1
Activity (HeLa): Active

N[C@H](CNC(=O)N1CCOCC1)Cc1cc(I)c(Oc2ccc(O)cc2)c(I)c1
Activity (HeLa): Active

CC(C)NC(=O)N[C@H](CO)Cc1cc(I)c(Oc2ccc(O)cc2)c(I)c1
Activity (HeLa): Active

CNC(=O)Cc1cc(I)c(Oc2ccc(O)c(I)c2)c(I)c1
Activity (U2OS [1]): Active
Activity (U2OS [2]): inactive
Activity (HeLa): Active

CS(=O)(=O)NC[C@@H](N)Cc1cc(I)c(Oc2ccc(O)cc2)c(I)c1
Activity (HeLa): Active

N[C@H](CO)Cc1cc(I)c(Oc2ccc(O)cc2)c(I)c1
Activity (U2OS [1]): Active
Activity (U2OS [2]): inactive
Activity (HeLa): Active

O=C(CCc1cc(I)c(Oc2ccc(O)cc2)c(I)c1)NCCO
Activity (HeLa): Active

O=C(Cc1cc(I)c(Oc2ccc(O)c(I)c2)c(I)c1)NS(=O)(=O)c1ccccc1
Activity (HeLa): Active

CCOCCNC(=O)CCc1cc(I)c(Oc2ccc(O)cc2)c(I)c1
Activity (HeLa): Active

CNC(=O)CCc1cc(I)c(Oc2ccc(O)cc2)c(I)c1
Activity (HeLa): Active

O=C(Cc1cc(I)c(Oc2ccc(O)c(I)c2)c(I)c1)N1CCOCC1
Activity (HeLa): Active

COC(=O)N[C@H](CO)Cc1cc(I)c(Oc2ccc(O)cc2)c(I)c1
Activity (HeLa): Active

CC(C)NC(=O)NC[C@@H](N)Cc1cc(I)c(Oc2ccc(O)cc2)c(I)c1
Activity (U2OS [1]): Active
Activity (U2OS [2]): inactive
Activity (HeLa): Active

CC(=O)N[C@H](CO)Cc1cc(I)c(Oc2ccc(O)cc2)c(I)c1
Activity (HeLa): Active

O=C(CCc1cc(I)c(Oc2ccc(O)cc2)c(I)c1)NCC1CCCO1 (configuration not stated)
Activity (HeLa): Active

O=C(CCc1cc(I)c(Oc2ccc(O)cc2)c(I)c1)N1CCOCC1
Activity (HeLa): Active

CN(C)C(=O)Cc1cc(I)c(Oc2ccc(O)c(I)c2)c(I)c1
Activity (HeLa): Active

CC(=O)NC[C@@H](N)Cc1cc(I)c(Oc2ccc(O)cc2)c(I)c1
Activity (U2OS [1]): Active
Activity (U2OS [2]): inactive
Activity (HeLa): Active

N[C@H](CNC(=O)CCN1CCOCC1)Cc1cc(I)c(Oc2ccc(O)cc2)c(I)c1
Activity (HeLa): Active
